Experiments:
[1] = molecular target: T1, Hordeum HPPD variant L353M, P321R, V212I, L334E (Hordeum vulgare, UniProt O48604, L334E/L353M/P321R/V212I); assay: HPPD activity assay, Hordeum HPPD mutant L353M, P321R, V212I, L334E; assay type: biochemical; conditions: normalized on Hordeum wild-type HPPD
T1 construct: His (N); made in house; host or cells: E. coli BL21 (DE3)
Method: (§1) HPPD produces homogentisic acid and CO2 from 4-hydroxyphenylpyruvate (4-HPP) and O2. The activity assay for HPPD is based on the analysis of homogentisic acid by reversed phase HPLC.
(§2) The assay mixture can contain 150 mM potassium phosphate buffer pH 7.0, 50 mM L-ascorbic acid, 1 μM FeSO4 and 7 μg of purified enzyme in a total volume of 1 ml.
(§3) Inhibitors are dissolved in DMSO (dimethylsulfoxide) to a concentration of 20 mM or 0.5 mM, respectively. From this stock solution serial five-fold dilutions are prepared in DMSO, which are used in the assay. The respective inhibitor solution accounts for 1% of the assay volume. […] After a preincubation of 30 min the reaction is started by adding 4-HPP to a final concentration of 0.1 mM. The reaction is allowed to proceed for 120 min at room temperature. The reaction is stopped by addition of 100 μl of 4.5 M phosphoric acid.
(§4) Activities are normalized by setting the uninhibited enzyme activity to 100%. IC50 values are calculated using non-linear regression.
(§5) The assay mixture can contain 150 mM potassium phosphate buffer pH 7.0, 50 mM L-ascorbic acid, 100 μM Catalase (Sigma-Aldrich), 1 μM FeSO4 and 0.2 units of purified HPPD enzyme in a total volume of 505 μl. 1 unit is defined as the amount of enzyme that is required to produce 1 nmol of HGA per minute at 20° C.
(§6) Inhibitors are dissolved in DMSO (dimethylsulfoxide) to a concentration of 0.5 mM. From this stock solution serial five-fold dilutions are prepared in DMSO, which are used in the assay. The respective inhibitor solution accounts for 1% of the assay volume. […] Activities are normalized by setting the uninhibited enzyme activity to 100%. IC50 values are calculated using non-linear regression.
(§7) Purified, mutant HPPD enzymes are obtained by the methods described above. Dose response and kinetic measurements are carried out using the described HPPD activity assay. Apparent michaelis constants (Km) and maximal reaction velocities (Vmax) are calculated by non-linear regression with the software GraphPad Prism 5 (GraphPad Software, La Jolla, USA) using a substrate inhibition model.
(§8) Field performance of the optimized HPPD enzyme, which is used as a herbicide tolerance trait may depend not only on its lack of sensitivity towards HPPD inhibiting herbicides but also on its activity. To assess the potential performance of a herbicide tolerance trait a tolerance index (TI) is calculated using the following formula: […]
(§9) Easy comparison and ranking of each trait is enabled by normalizing tolerance indexes on Arabidopsis or Hordeum wild-type HPPD.

[2] = test system: Avena HPPD; assay: HPPD activity assay, Avena HPPD; assay type: biochemical, Avena sativa; conditions: normalized on Arabidopsis wild-type HPPD
Method: as §1, §2
(§10) Inhibitors are dissolved in DMSO (dimethylsulfoxide) to a concentration of 20 mM or 0.5 mM, respectively. From this stock solution serial five-fold dilutions are prepared in DMSO, which are used in the assay. The respective inhibitor solution accounts for 1% of the assay volume. Thus, final inhibitor concentrations range from 200 μM to 2.5 nM or from 5 μM to 63 pM, respectively. After a preincubation of 30 min the reaction is started by adding 4-HPP to a final concentration of 0.1 mM. The reaction is allowed to proceed for 120 min at room temperature. The reaction is stopped by addition of 100 μl of 4.5 M phosphoric acid.
as §4, §5
(§11) Inhibitors are dissolved in DMSO (dimethylsulfoxide) to a concentration of 0.5 mM. From this stock solution serial five-fold dilutions are prepared in DMSO, which are used in the assay. The respective inhibitor solution accounts for 1% of the assay volume. Thus, final inhibitor concentrations range from 5 μM to 320 pM, respectively. Activities are normalized by setting the uninhibited enzyme activity to 100%. IC50 values are calculated using non-linear regression.
(§12) Using methods which are described in the above examples or well known in the art, purified, recombinant wildtype HPPD enzymes are characterized with respect to their kinetic properties and sensitivity towards HPPD inhibiting herbicides. Apparent michaelis constants (Km) and maximal reaction velocities (Vmax) are calculated by non-linear regression with the software GraphPad Prism 5 (GraphPad Software, La Jolla, USA) using a substrate inhibition model. […] Weighted means (by standard error) of Km and […] values are calculated from at least three independent experiments. […]
(§13) Field performance of the HPPD enzyme, which is used as a herbicide tolerance trait, may depend not only on its lack of sensitivity towards HPPD inhibiting herbicides but also on its activity. To assess the potential performance of a herbicide tolerance trait a tolerance index (TI) is calculated using the following formula: […]

[3] = molecular target: T2, Hordeum HPPD variant L320H, P321A (Hordeum vulgare, UniProt O48604, L320H/P321A); assay: HPPD activity assay, Hordeum HPPD mutant L320H, P321A; assay type: biochemical; conditions: normalized on Hordeum wild-type HPPD
T2 construct: His (N); made in house; host or cells: E. coli BL21 (DE3)
T2 sequence (O48604 whole entry R146V/R147D/R148G/A164G/L320H/P321A): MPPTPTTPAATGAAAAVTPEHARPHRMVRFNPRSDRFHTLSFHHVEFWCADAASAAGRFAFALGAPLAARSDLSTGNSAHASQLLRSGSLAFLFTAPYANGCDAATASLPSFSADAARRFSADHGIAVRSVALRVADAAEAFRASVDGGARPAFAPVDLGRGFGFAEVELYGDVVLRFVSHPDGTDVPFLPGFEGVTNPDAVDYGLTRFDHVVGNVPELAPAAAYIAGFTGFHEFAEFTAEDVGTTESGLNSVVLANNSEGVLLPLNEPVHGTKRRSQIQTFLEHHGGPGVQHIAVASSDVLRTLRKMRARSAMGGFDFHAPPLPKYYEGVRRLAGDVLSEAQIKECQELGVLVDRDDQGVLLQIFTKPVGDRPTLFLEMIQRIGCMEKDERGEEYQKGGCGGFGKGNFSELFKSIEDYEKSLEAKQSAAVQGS
Method: as §1, §2, §3, §4, §5, §6, §7, §8, §9

[4] = test system: Lolium HPPD; assay: HPPD activity assay, Lolium HPPD; assay type: biochemical; conditions: normalized on Arabidopsis wild-type HPPD
Method: as §1, §2, §10, §4, §5, §11, §12, §13

[5] = molecular target: T3, Hordeum HPPD variant G407C (Hordeum vulgare, UniProt O48604, A164G/G407C/R146V/R147D/R148G); assay: HPPD activity assay, Hordeum HPPD mutant G407C; assay type: biochemical; conditions: normalized on Hordeum wild-type HPPD
T3 construct: His (N); made in house; host or cells: E. coli BL21 (DE3)
T3 sequence (O48604 whole entry R146V/R147D/R148G/A164G/G407C): as the sequence (O48604 whole entry R146V/R147D/R148G/A164G/L320H/P321A) above, with H320L, A321P, G407C counted along it
Method: as §1, §2, §3, §4, §5, §6, §7, §8, §9

T1 sequence (O48604 whole entry R146V/R147D/R148G/A164G/V212I/P321R/L334E/L353M): as the sequence (O48604 whole entry R146V/R147D/R148G/A164G/L320H/P321A) above, with V212I, H320L, A321R, L334E, L353M counted along it

Compound | Normalized tolerance index TI [1] | Normalized tolerance index TI [2] | Normalized tolerance index TI [3] | Normalized tolerance index TI [4] | Normalized tolerance index TI [5]
CC1=NOC(c2c(Cl)ccc(C3=C(O)c4ncccc4C(C)(C)S3(=O)=O)c2Cl)C1 (stereo not drawn) [Inhibitor 1, 7-[2,4-dichloro-3-(3-methyl-4,5-dihydroisoxazol-5-yl)phenyl]-5,5-dimethyl-6,6-dioxo-thiopyrano[4,3-b]pyridin-8-ol] | 2.2 | 4.7 | 5.2 | 4.2 | 2.7
CC1(C)c2cccnc2C(O)=C(c2ccc(Cl)nc2Cl)S1(=O)=O [Inhibitor 2, 7-(2,6-dichloro-3-pyridyl)-5,5-dimethyl-6,6-dioxo-thiopyrano[4,3-b]pyridin-8-ol] | 1.9 | 2.8 | 2.5 | 1.8 | 2
COCCOCc1c(Cl)ccc(C2=C(O)c3ncccc3C(C)(C)S2(=O)=O)c1Cl [Inhibitor 3, 7-[2,4-dichloro-3-(2-methoxyethoxymethyl)phenyl]-5,5-dimethyl-6,6-dioxo-thiopyrano[4,3-b]pyridin-8-ol] | 2.1 | 0.1 | 4.8 | 0.3 | 2.4

— patent US20140357487A1, “PLANTS HAVING INCREASED TOLERANCE TO HERBICIDES” (BASF SE, priority 2011, published 2014)
